Read-outs that look alike come from different tables or passages of the source.
Biological target: T1, human leukocyte elastase (Homo sapiens, UniProt P08246)
T1 sequence (P08246 30-267): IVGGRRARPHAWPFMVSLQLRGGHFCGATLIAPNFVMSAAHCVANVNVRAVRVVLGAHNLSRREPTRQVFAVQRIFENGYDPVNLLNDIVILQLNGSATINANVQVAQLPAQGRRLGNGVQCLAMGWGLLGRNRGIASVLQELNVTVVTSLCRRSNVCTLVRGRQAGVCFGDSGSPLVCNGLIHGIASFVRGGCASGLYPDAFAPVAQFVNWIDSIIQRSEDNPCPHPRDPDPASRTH
Test: in vitro human leukocyte elastase inhibiting activity (fluorogenic substrate, method of JP-A-2-101017 with slight modification)
Assay type: biochemical
Protocol: Thus, methoxysuccinyl-Ala-Ala-Pro-Val-7-amido-4-methylcoumarin was used as a substrate for human leukocyte elastase and the 50% inhibitory concentration (IC₅₀) was measured. The enzymatic reaction was carried out in 0.2 M Tris-hydrochloride buffer (containing 0.02 M CaCl₂ and 0.005% Triton X-100) at pH 7.2. Each mixture of test compound solution and the enzyme solution was incubated at 25°C for 20 minutes.

[1] = 50% inhibitory concentration, substrate methoxysuccinyl-Ala-Ala-Pro-Val-7-amido-4-methylcoumarin, 0.2 M Tris-hydrochloride buffer (0.02 M CaCl2, 0.005% Triton X-100), pH 7.2, compound and enzyme incubated at 25°C for 20 minutes, read-out: IC50

| SMILES | IC50 [1] | IC50 |
| --- | --- | --- |
| CC(C)C(=O)Nc1ccc(C(=O)Oc2cc(O)cc(Cl)c2)cc1 [Compound 73, 3-chloro-5-hydroxyphenyl 4-(isobutanoylamino)benzoate] | 0.11 µM |  |
| O=C(Cc1cccs1)Nc1ccc(C(=O)Oc2cc(Cl)cc(Cl)c2)cc1 [Compound 37, 3,5-dichlorophenyl 4-(2-thienylacetylamino)benzoate] | 0.079 µM |  |
| CC(C)C(=O)Nc1ccc(C(=O)Oc2cc(Cl)cc(OC(=O)C3CCCCC3)c2)cc1 [Compound 79, 3-chloro-5-(cyclohexanecarbonyloxy)phenyl 4-(isobutanoylamino)benzoate] | 0.11 µM |  |
| CC(C)C(=O)Nc1ccc(C(=O)Oc2c(Cl)cccc2Cl)cc1 [Compound 66, 2,6-dichlorophenyl 4-(isobutanoylamino)benzoate] | 0.094 µM |  |
| CC(=O)Oc1cc(Cl)cc(OC(=O)c2ccc(NC(=O)C(C)C)cc2)c1 [Compound 74, 3-acetoxy-5-chlorophenyl 4-(isobutanoylamino)benzoate] | 0.0033 µM |  |
| CC(=O)OC(=O)Nc1ccc(C(=O)Oc2cc(Cl)cc(Cl)c2)cc1 [Compound 36, 3,5-dichlorophenyl 4-(acetoxycarbonylamino)benzoate] | 0.031 µM |  |
| CCCCCNC(=O)Nc1ccc(C(=O)Oc2cc(Cl)cc(Cl)c2)cc1 [Compound 30, 3,5-dichlorophenyl 4-(3-pentylureido)benzoate] | 0.19 µM |  |
| COc1cc(OC)cc(OC(=O)c2ccc(NC(=O)C(C)C)cc2)c1 [Compound 91, 3,5-dimethoxyphenyl 4-(isobutanoylamino)benzoate] | 0.3 µM |  |
| CCCCCCCC(=O)Nc1ccc(C(=O)Oc2cc(Cl)cc(Cl)c2)cc1 [Compound 6, 3,5-dichlorophenyl 4-(octanoylamino)benzoate] | 0.11 µM |  |
| CC(C)C(=O)Nc1ccc(C(=O)Oc2cc(Cl)cc(OC(=O)N(C)C)c2)cc1 [Compound 81, 3-chloro-5-(dimethylaminocarbonyloxy)phenyl 4-(isobutanoylamino)benzoate] |  | 0.0065 µM |
| CC(C)C(=O)Nc1ccc(C(=O)Oc2cccc(O)c2[N+](=O)[O-])cc1 [Compound 49, 5-hydroxy-6-nitrophenyl 4-(isobutanoylamino)benzoate] | 0.18 µM |  |

Continued by falling IC50 [1], values first:

| IC50 [1] | SMILES | IC50 |
| --- | --- | --- |
| 0.024 µM | CC(C)C(=O)Nc1ccc(C(=O)Oc2cc(Cl)cc(OS(=O)(=O)c3ccccc3)c2)cc1 [Compound 85, 3-benzenesulfonyloxy-5-chlorophenyl 4-(isobutanoylamino)benzoate] |  |
| 0.024 µM | CC(C)C(=O)Nc1ccc(C(=O)Oc2cc(Cl)cc(OC(=O)C=Cc3ccccc3)c2)cc1 [Compound 80, 3-cinnamoyloxy-5-chlorophenyl 4-(isobutanoylamino)benzoate] |  |
| 0.023 µM | O=C(O)CCC(=O)Nc1ccc(C(=O)Oc2cc(Cl)cc(Cl)c2)cc1 [Compound 22, 3,5-dichlorophenyl 4-(succinylamino)benzoate] |  |
| 0.018 µM | CC(C)C(=O)Nc1ccc(C(=O)Oc2cc(Cl)cc(OS(C)(=O)=O)c2)cc1 [Compound 82, 3-chloro-5-(methanesulfonyloxy)phenyl 4-(isobutanoylamino)benzoate] |  |
| 0.016 µM | CC(C)C(=O)Nc1ccc(C(=O)Oc2ccccc2[N+](=O)[O-])cc1 [Compound 48, 6-nitrophenyl 4-(isobutanoylamino)benzoate] |  |
| 0.0093 µM | CC(C)C(=O)Nc1ccc(C(=O)Oc2ccccc2C#N)cc1 [Compound 61, 2-cyanophenyl 4-(isobutanoylamino)benzoate] |  |
| 0.0077 µM | O=C(Oc1cc(Cl)cc(Cl)c1)c1ccc(NC(=O)C2CC2)cc1 [Compound 15, 3,5-dichlorophenyl 4-(cyclopropanecarbonylamino)benzoate] |  |
| 0.0067 µM | CC(C)(CC#N)C(=O)Nc1ccc(C(=O)Oc2cc(Cl)cc(Cl)c2)cc1 [Compound 46, 3,5-dichlorophenyl 4-(3-cyano-2,2-dimethylpropanoylamino)benzoate] |  |
| 0.0053 µM | O=C(Cc1ccccc1)Nc1ccc(C(=O)Oc2cc(Cl)cc(Cl)c2)cc1 [Compound 9, 3,5-dichlorophenyl 4-(phenylacetylamino)benzoate] |  |
| 0.0045 µM | CC(C)C(=O)Nc1ccc(C(=O)Oc2cc(Cl)cc(Cl)c2Cl)cc1 [Compound 65, 2,3,5-trichlorophenyl 4-(isobutanoylamino)benzoate] |  |
| 0.0029 µM | CC(C)(C)C(=O)Nc1ccc(C(=O)Oc2cc(Cl)cc(OC(=O)C3CC3)c2)cc1 [Compound 57, 3-chloro-5-(cyclopropanecarbonyloxy)phenyl 4-(pivaloylamino)benzoate] |  |
| 0.0026 µM | CC(C)C(=O)Nc1ccc(C(=O)Oc2cc(F)ccc2[N+](=O)[O-])cc1 [Compound 51, 3-fluoro-6-nitrophenyl 4-(isobutanoylamino)benzoate] |  |
| 0.0025 µM | CCC(=O)Oc1cc(Cl)cc(OC(=O)c2ccc(NC(=O)C(C)C)cc2)c1 [Compound 75, 3-chloro-5-propanoyloxyphenyl 4-(isobutanoylamino)benzoate] |  |
| 0.0019 µM | CC(C)C(=O)Nc1ccc(C(=O)Oc2cc(Cl)cc(OC(=O)C(C)C)c2)cc1 [Compound 76, 3-chloro-5-isobutanoyloxyphenyl 4-(isobutanoylamino)benzoate] |  |
| 0.0013 µM | CC(C)C(=O)Nc1ccc(C(=O)Oc2cc(Cl)ccc2C#N)cc1 [Compound 62, 3-chloro-6-cyanophenyl 4-(isobutanoylamino)benzoate] |  |
